Source: patent publication US7504420B2, “Compounds which inhibit beta-secretase activity and methods of use” (CoMentis, Inc., priority 2005, dated 2009)
pIC50, pKi: −log10 of the molar value. Like-named read-outs stand apart in the source and are kept apart here.

Tests used:
[1] = molecular target: memapsin 2 (Homo sapiens, UniProt P56817); test: Inhibition of memapsin 2 catalytic activity (Ki); assay type: biochemical; settings: memapsin 2, pH 4, 37° C.; read-out: M2K
Outline: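 Run at 37 °C and pH 4: compound and enzyme pre-incubated 20 min before FS-2 fluorogenic substrate started hydrolysis,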

[2] = molecular target: cathepsin D (Homo sapiens, UniProt P07339); test: Inhibition of cathepsin D catalytic activity (Ki); assay type: biochemical; settings: pH 4.0, 37° C., read-out: CDK
Description: A substrate peptide NH3-ELDLAVEFWHDR-CO2 (SEQ ID NO.:1) (used for inhibition assay of memapsin 2, memapsin 1, and cathepsin D) was dissolved at 2 mg/ml in DMSO and diluted 1:100 in 0.1 M sodium acetate, pH 4.0 just prior to assay. Inhibitor dissolved in DMSO was diluted into 0.1 M sodium acetate, pH 4.0 (1:100 dilution). A […] aliquot of the inhibitor solution in pH 4 buffer was combined with […] of 0.1 M sodium acetate containing 100-200 nM of memapsin 1, memapsin 2, or cathepsin D. Following a pre-incubation at 37° C., the proteolytic assay was initated by addition of […] of the substrate diluted into pH 4 buffer, and incubation continued at 37° C. Aliquots were removed at time intervals, and combined with an equal volume of MALDI-TOF matrix (α-hydroxycinnamic acid in acetone, 20 mg/ml) and immediately spotted in duplicate onto a stainless-steel MALDI sample plate. MALDI-TOF mass spectrometry was performed on a PE Biosystems Voyager DE instrument at the Molecular Biology Resource Center on campus. The instrument was operated at 25,000 accelerating volts in positive mode with a 150 ns delay. Ions with a mass-to-charge ratio (m/z) were detected in the range of 650-2000 atomic mass units. Data were analyzed by the Voyager Data Explorer module to obtain ion intensity data for mass species of substrates and corresponding products in a given mixture. Relative product formation was calculated as the ratio of signal intensity of the product to the sum of signal intensities of both product and the corresponding substrate. Relative product formed per unit time was obtained from non-linear regression analysis of the data representing the initial 15% formation of product using the model: 1−e^−kT, where k was the relative hydrolytic rate constant and T was time in seconds. Alternatively, relative hydrolytic rates were determined using a fluorogenic cleavage assay (Ermolieff, J. et al., Biochemistry, 39: 12450-12456 (2000)). Initial rates from either method were expressed relative to uninhibited controls and the inhibition constant Ki was determined by a non-linear fit to a tight-binding model of competitive inhibition (Bieth, J., Bayer-Symposium V: Proteinase Inhibitors, pp 463-469, Spinger-Varlag, Berlin (1994)). Results are shown in Table 1 above (M2K, CDK, and M1K columns represent, respectively, the K1 values obtained for memapsin 2, cathepsin D and memapsin 1).

[3] = system: Aβ production in Chinese hamster ovary cells that over-express human APP695 with the London and Swedish mutations; test: Cellular Aβ IC50 determination (Aβ40 sandwich ELISA); settings: 24 h
[4] = Cricetulus griseus, CHO, read-out: Cell, Aβ40, CHO cells over-expressing human APP695 (London and Swedish mutations), 24 h

cathepsin D, sequence (P07339 65-412, species assumed): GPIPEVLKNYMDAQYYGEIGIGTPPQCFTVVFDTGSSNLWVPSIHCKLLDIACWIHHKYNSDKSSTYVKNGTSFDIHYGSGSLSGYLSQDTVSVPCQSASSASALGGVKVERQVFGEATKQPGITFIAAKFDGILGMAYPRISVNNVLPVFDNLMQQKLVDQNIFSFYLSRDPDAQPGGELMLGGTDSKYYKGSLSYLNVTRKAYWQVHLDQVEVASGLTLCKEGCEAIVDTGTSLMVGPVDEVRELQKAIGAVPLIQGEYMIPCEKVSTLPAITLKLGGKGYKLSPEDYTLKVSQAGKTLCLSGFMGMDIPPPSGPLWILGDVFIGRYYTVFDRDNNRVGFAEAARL
memapsin 2, sequence (P56817 46-501): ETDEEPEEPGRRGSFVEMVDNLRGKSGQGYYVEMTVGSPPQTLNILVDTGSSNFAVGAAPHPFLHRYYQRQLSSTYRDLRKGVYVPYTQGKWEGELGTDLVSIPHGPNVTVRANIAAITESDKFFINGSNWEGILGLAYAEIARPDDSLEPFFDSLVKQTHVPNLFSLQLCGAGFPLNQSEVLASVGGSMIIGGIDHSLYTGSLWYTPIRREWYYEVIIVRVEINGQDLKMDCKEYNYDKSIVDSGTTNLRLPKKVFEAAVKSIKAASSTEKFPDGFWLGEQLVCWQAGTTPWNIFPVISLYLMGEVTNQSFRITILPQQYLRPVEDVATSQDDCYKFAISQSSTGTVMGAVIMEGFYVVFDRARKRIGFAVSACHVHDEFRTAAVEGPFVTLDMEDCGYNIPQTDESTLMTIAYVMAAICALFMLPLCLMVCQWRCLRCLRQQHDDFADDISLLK

Row | Molecule | pKi [1] | pKi [2] | pIC50 [3, 4] | pIC50 ([3]; read-out: Cell, Aβ40, CHO cells over-expressing human APP695 (London and Swedish mutations))
1 | CCc1cncc(CNCC(O)C(Cc2ccccc2)NC(=O)c2cc(C(=O)NC(C)c3ccccc3)cc(N(C)S(C)(=O)=O)c2)c1 (stereo not shown) [N1-(4-((5-ethylpyridin-3-yl)methylamino)-3-hydroxy-1-phenylbutan-2-yl)-5-(N-methylmethylsulfonamido)-N3-(1-phenylethyl)isophthalamide] | > 6.52 | > 6.52 | > 6.00 | –
2 | Cc1cc(CNCC(O)C(Cc2ccccc2)NC(=O)c2cc(C(=O)NC(C)c3ccccc3)cc(N(C)S(C)(=O)=O)c2)no1 (stereo not shown) [N1-(3-hydroxy-4-((5-methylisoxazol-3-yl)methylamino)-1-phenylbutan-2-yl)-5-(N-methylmethylsulfonamido)-N3-(1-phenylethyl)isophthalamide] | > 6.52 | > 6.52 | > 6.00 | –
3 | COc1cccc(CNCC(O)C(Cc2ccccc2)NC(=O)c2cccc(C(=O)N(C)C(C)c3nc(C)cs3)c2)c1 (stereo not shown) [N1-(3-hydroxy-4-(3-methoxybenzylamino)-1-phenylbutan-2-yl)-N3-methyl-N3-(1-(4-methylthiazol-2-yl)ethyl)isophthalamide] | > 6.52 | > 6.52 | > 6.00 | –
4 | CC(C)Oc1cncc(CNCC(O)C(Cc2ccccc2)NC(=O)c2cc(C(=O)NC(C)c3ccccc3)cc(N(C)S(C)(=O)=O)c2)c1 (stereo not shown) [N1-(3-hydroxy-4-((5-isopropoxypyridin-3-yl)methylamino)-1-phenylbutan-2-yl)-5-(N-methylmethylsulfonamido)-N3-(1-phenylethyl)isophthalamide] | > 6.52 | > 6.52 | > 6.00 | –
5 | CC(NC(=O)c1cc(C(=O)NC(Cc2ccccc2)C(O)CNCc2cncc(N(C)C)c2)cc(N(C)S(C)(=O)=O)c1)c1ccccc1 (stereo not shown) [N1-(4-((5-(dimethylamino)pyridin-3-yl)methylamino)-3-hydroxy-1-phenylbutan-2-yl)-5-(N-methylmethylsulfonamido)-N3-(1-phenylethyl)isophthalamide] | > 6.52 | 6.30 to 6.52 | > 6.00 | –
6 | CCc1cncc(CNCC(O)C(Cc2ccccc2)NC(=O)c2cccc(C(=O)N(C)Cc3nc(C)cs3)c2)c1 (stereo not shown) [N1-(4-((5-ethylpyridin-3-yl)methylamino)-3-hydroxy-1-phenylbutan-2-yl)-N3-methyl-N3-((4-methylthiazol-2-yl)methyl)isophthalamide] | > 6.52 | > 6.52 | > 6.00 | –
7 | CC(C)c1cncc(CNCC(O)C(Cc2ccccc2)NC(=O)c2cc(C(=O)NC(C)c3ccccc3)cc(N(C)S(C)(=O)=O)c2)c1 (stereo not shown) [N1-(3-hydroxy-4-((5-isopropylpyridin-3-yl)methylamino)-1-phenylbutan-2-yl)-5-(N-methylmethylsulfonamido)-N3-(1-phenylethyl)isophthalamide] | > 6.52 | > 6.52 | > 6.00 | –
8 | CC(NC(=O)c1cc(C(=O)NC(Cc2ccccc2)C(O)CNCc2cccc(C(F)(F)F)c2)cc(N(C)S(C)(=O)=O)c1)c1ccccc1 (stereo not shown) [N1-(3-hydroxy-1-phenyl-4-(3-(trifluoromethyl)benzylamino)butan-2-yl)-5-(N-methylmethylsulfonamido)-N3-(1-phenylethyl)isophthalamide] | > 6.52 | > 6.52 | > 6.00 | –
9 | CC(NCC(O)C(Cc1ccccc1)NC(=O)c1cc(C(=O)NC(C)c2ccccc2)cc(N(C)S(C)(=O)=O)c1)c1cccc(F)c1 (stereo not shown) [N1-(4-(1-(3-fluorophenyl)ethylamino)-3-hydroxy-1-phenylbutan-2-yl)-5-(N-methylmethylsulfonamido)-N3-(1-phenylethyl)isophthalamide] | > 6.52 | > 6.52 | – | –
10 | CCOc1cncc(CNCC(O)C(Cc2ccccc2)NC(=O)c2cc(C(=O)NC(C)c3ccccc3)cc(N(C)S(C)(=O)=O)c2)c1 (stereo not shown) [N1-(4-((5-ethoxypyridin-3-yl)methylamino)-3-hydroxy-1-phenylbutan-2-yl)-5-(N-methylmethylsulfonamido)-N3-(1-phenylethyl)isophthalamide] | > 6.52 | – | > 6.00 | –

More lines, now with the values ahead:

Row | pKi [1] | pKi [2] | pIC50 [3, 4] | pIC50 ([3]; read-out: Cell, Aβ40, CHO cells over-expressing human APP695 (London and Swedish mutations)) | Molecule
11 | > 6.52 | > 6.52 | 5.30 to 6.00 | – | CC(NC(=O)c1cc(C(=O)NC(Cc2ccccc2)C(O)CNCC2CCN(C(=O)OCc3ccccc3)CC2)cc(N(C)S(C)(=O)=O)c1)c1ccccc1 (stereo not shown) [benzyl 4-((2-hydroxy-3-(3-(N-methylmethylsulfonamido)-5-(1-phenylethylcarbamoyl)benzamido)-4-phenylbutylamino)methyl)piperidine-1-carboxylate]
12 | > 6.52 | > 6.52 | > 6.00 | – | Cc1csc(CN(C)C(=O)c2cccc(C(=O)NC(Cc3ccccc3)C(O)CNCc3cccc(OC(C)C)c3)c2)n1 (stereo not shown) [N1-(3-hydroxy-4-(3-isopropoxybenzylamino)-1-phenylbutan-2-yl)-N3-methyl-N3-((4-methylthiazol-2-yl)methyl)isophthalamide]
13 | > 6.52 | > 6.52 | > 6.00 | – | CC(NC(=O)c1cc(C(=O)NC(Cc2ccccc2)C(O)CNCc2cccc(CF)c2)cc(N(C)S(C)(=O)=O)c1)c1ccccc1 (stereo not shown) [N1-(4-(3-(fluoromethyl)benzylamino)-3-hydroxy-1-phenylbutan-2-yl)-5-(N-methylmethylsulfonamido)-N3-(1-phenylethyl)isophthalamide]
14 | > 6.52 | > 6.52 | > 6.00 | – | Cc1cncc(CNCC(O)C(Cc2ccccc2)NC(=O)c2cccc(C(=O)N(C)Cc3nc(C)cs3)c2)c1 (stereo not shown) [N1-(3-hydroxy-4-((5-methylpyridin-3-yl)methylamino)-1-phenylbutan-2-yl)-N3-methyl-N3-((4-methylthiazol-2-yl)methyl)isophthalamide]
15 | > 6.52 | > 6.52 | – | – | COc1cccc(CCNCC(O)C(Cc2ccccc2)NC(=O)c2cc(C(=O)NC(C)c3ccccc3)cc(N(C)S(C)(=O)=O)c2)c1 (stereo not shown) [N1-(3-hydroxy-4-(3-methoxyphenethylamino)-1-phenylbutan-2-yl)-5-(N-methylmethylsulfonamido)-N3-(1-phenylethyl)isophthalamide]
16 | > 6.52 | > 6.52 | – | – | Cc1ccc(CNCC(O)C(Cc2ccccc2)NC(=O)c2cc(C(=O)NC(C)c3ccccc3)cc(N(C)S(C)(=O)=O)c2)o1 (stereo not shown) [N1-(3-hydroxy-4-((5-methylfuran-2-yl)methylamino)-1-phenylbutan-2-yl)-5-(N-methylmethylsulfonamido)-N3-(1-phenylethyl)isophthalamide]
17 | < 6.30 | > 6.52 | – | – | 4- or 6-fluoro-N3-(3-hydroxy-4-(3-methoxybenzylamino)-1-phenylbutan-2-yl)-N1-(1-phenylethyl)isophthalamide
18 | – | > 6.52 | – | 5.30 to 6.00 | N3-(3-hydroxy-4-(3-methoxybenzylamino)-1-phenylbutan-2-yl)-4- or 6-methyl-N1-(1-phenylethyl)isophthalamide
19 | – | > 6.52 | – | – | CNc1cccc(CNCC(O)C(Cc2ccccc2)NC(=O)c2cc(C(=O)NC(C)c3ccccc3)cc(N(C)S(C)(=O)=O)c2)c1 (stereo not shown) [N1-(3-hydroxy-4-(3-(methylamino)benzylamino)-1-phenylbutan-2-yl)-5-(N-methylmethylsulfonamido)-N3-(1-phenylethyl)isophthalamide]
20 | > 6.52 | – | > 6.00 | – | CC(NC(=O)c1cc(C(=O)NC(Cc2ccccc2)C(O)CNC(CO)c2ccccc2)cc(N(C)S(C)(=O)=O)c1)c1ccccc1 (stereo not shown) [N1-(3-hydroxy-4-(2-hydroxy-1-phenylethylamino)-1-phenylbutan-2-yl)-5-(N-methylmethylsulfonamido)-N3-(1-phenylethyl)isophthalamide]
21 | > 6.52 | – | > 6.00 | – | COc1cccc(CNCC(O)C(Cc2ccccc2)NC(=O)c2cccc(C(=O)N(C)Cc3csc(C)n3)c2)c1 (stereo not shown) [N1-(3-hydroxy-4-(3-methoxybenzylamino)-1-phenylbutan-2-yl)-N3-methyl-N3-((2-methylthiazol-4-yl)methyl)isophthalamide]
22 | > 6.52 | – | > 6.00 | – | COc1cccc(CNCC(O)C(Cc2cc(F)cc(F)c2)NC(=O)c2cccc(C(=O)N(C)Cc3nc(C)cs3)c2)c1 (stereo not shown) [N1-(1-(3,5-difluorophenyl)-3-hydroxy-4-(3-methoxybenzylamino)butan-2-yl)-N3-methyl-N3-((4-methylthiazol-2-yl)methyl)isophthalamide]
